Source: patent publication US5446207A, “Anti-dyslipidemic agents” (Harbor Branch Oceanographic Institution, Inc., priority 1993, dated 1995)

Molecular target: T1, recombinant CETP (rCETP) (Homo sapiens, UniProt P11597)
T1 sequence (P11597 18-493): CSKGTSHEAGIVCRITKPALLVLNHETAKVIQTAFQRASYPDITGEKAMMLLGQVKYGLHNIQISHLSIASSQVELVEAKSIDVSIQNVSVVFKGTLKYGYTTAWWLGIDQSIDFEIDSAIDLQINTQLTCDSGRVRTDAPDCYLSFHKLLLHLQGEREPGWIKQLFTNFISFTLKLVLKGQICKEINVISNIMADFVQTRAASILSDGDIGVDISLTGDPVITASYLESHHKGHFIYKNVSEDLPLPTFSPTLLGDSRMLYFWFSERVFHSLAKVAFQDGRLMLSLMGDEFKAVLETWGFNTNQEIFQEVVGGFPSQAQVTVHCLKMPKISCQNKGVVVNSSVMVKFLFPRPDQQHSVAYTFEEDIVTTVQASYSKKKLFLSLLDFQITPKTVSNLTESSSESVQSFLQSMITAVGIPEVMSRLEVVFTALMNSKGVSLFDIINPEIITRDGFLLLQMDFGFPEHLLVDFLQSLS
Assay: CETP scintillation proximity assay (transfer of [3H]cholesteryl esters from HDL to biotinylated LDL)
Type: biochemical
Settings: for IC50: rCETP, 37° C., 4 hours, SPA, read-out: IC50 (inhibition of CETP transfer activity); for activity in the cholesteryl ester transfer protein (CETP) assay: statement in words
Description: This assay used a commercially available CETP Scintillation Proximity Assay kit (Amersham TRKQ7015). In this assay, the transfer of [^3 H]cholesteryl esters from high density lipoprotein (HDL) to biotinylated low density lipoproteins (LDL) was measured following incubation of donor and acceptor particles in the presence of recombinant CETP (rCETP; see Wang S. et al J. Biol. Chem. (1992) 267:1746-17490 which is herein incorporated by reference). Following incubation, the reaction was terminated and transfer was measured in a single step addition of streptavidin SPA beads, formulated in an assay terminal buffer (Amersham). The rate of increase in signal was proportional to the transfer of [^3 H]cholesteryl ester by CETP.
To 96-well microtiter plates ([…] Microlite) was pipetted 5 μl of sample (or buffer for blank) of appropriate dilution. […] As a control, 5 μl of CETP monoclonal antibody TP-1, 1:10 dilution from ascites was added. The reaction was started by adding 45 μl of the following mixtures to each well.
20 μl of assay buffer (from kit)
10 μl ^3 H]Cholesteryl ester-HDL (from kit)
10 μl of biotinylated LDL (from kit)
The contents of the plate were mixed briefly by tapping the plate gently and then the plate was sealed with parafiim to prevent evaporation during the incubation. The plates were incubated at 37° C. for 4 hours. After incubation the reaction was stopped by adding 200 μl of streptavidin beads to each well. The beads were shaken gently before addition. The mixture was incubated at room temperature for 30 minutes to allow the assay to come to equilibrium with beads. Dpm were counted on a TopCount (Packard Instrument Company, Downers Grove, Ill.) (A conventional scintillation counter with window settings fully open may also be used).

Row | IC50 [µM] | activity in the cholesteryl ester transfer protein (CETP) assay | SMILES
1 | 2 | active | COc1ccc(O)c(O)c1CC1=C(C)CC[C@H]2C(C)(C)CCC[C@]12C (relative stereo) [Compound A, wiedendioI-A]
2 | 2.9 | active | COc1ccc(O)c(O)c1/C=C1\[C@@H](C)CC[C@H]2C(C)(C)CCC[C@]12C (relative stereo) [Compound B, wiedendioI-B]
